Measured values published in paper PMC13198257, “An aerosolized dual-action autotaxin inhibitor-PPARγ agonist for the treatment of pulmonary fibrosis” (Cell Reports Medicine, 2026).

Assays:
type 2 diabetes model = assay: HFD/STZ type 2 diabetes model, oGTT; type: in vivo, C57bl/6 male mice; conditions: i.p. 50 mg/kg daily, final 2 weeks
Description: One-year old male mice were given a High-Fat Diet (D12492, Research Diets) for 10 weeks. During the sixth week of the HFD period, mice received three streptozotocin injections (40mg/kg). Control mice that were consuming a control diet (D12450Ji, Research Diets) received injections with the solvent of STZ, 50 mM sodium citrate buffer, pH 4.5. During the last two weeks of the HFD treatment, a subgroup of prediabetic mice was daily administered EL244 through intraperitoneal injections (50 mg/kg). Disease induction and EL244 efficacy were assessed using an Oral Glucose tolerance test (oGTT), as widely used.[64]^,[65]^,[66] 6-hr-fasted mice were administered a 10% glucose solution at 1 g/kg orally. Blood glucose levels were measured with a saccharometer before glucose administration and at 15, 30, 60, 90, and 120 min thereafter. Insulin resistance was assessed by the Area under curve (AUC) of the oGTT.

NHLFs = assay: TGF-β-induced normal human lung fibroblasts (NHLFs): fibrotic markers and PPARγ target genes; type: cell-based; conditions: 75 μΜ, TGFβ 10 ng/ml
Description: Normal human lung fibroblasts (NHLFs), clone 832, were isolated from the adjacent healthy tissue of a patient undergoing open lung surgery for cancer at the Department of Pulmonology, Bichat-Claude Bernard Hospital, Paris/France; studies were approved by the Committee for Personal Protection (CPP)—Ile de France 1 (#0911932). The patient provided written consent to the use of his/her sample for research purposes; no compensation was provided. NHLFs were cultured in DMEM supplemented with 10% FBS, 1% penicillin/streptomycin, and 0.1% amphotericin B at 37 °C, 5% CO2 and ≥95% relative humidity.
For experiments, NHLFs were seeded in 6-well plates at a density of 2 × 10^5 cells per well. After overnight serum starvation, cells were pre-treated with EL244 or vehicle (concentrations specified in the corresponding figures) for 1 h, followed by stimulation with TGFβ (10 ng/mL) for 24 h.
Cells were washed twice with ice-cold 1× PBS and lysed in RIPA buffer containing 50 mM Tris-HCl (pH 7.4), 1 mM EDTA, 150 mM NaCl, 0.25% (w/v) sodium deoxycholate, 1% (v/v) Triton X-100, 0.1% (w/v) SDS and 1 mM PMSF. Equal amounts of protein extracts (30 μg) were separated into 10% SDS-PAGE gels and subsequently electro-transferred onto nitrocellulose membranes. Membranes were blocked for 1 h at room temperature in 1X TBS-T containing 5% non-fat dry milk. […] Immunoreactive protein bands were detected using ECL.

LPA levels = LPA levels in BALF and plasma of BLM mice after inhaled EL244 (MS/MS); type: in vivo
Description: Plasma (50μL), BALF (300 μL) or homogenized lung tissue (10–50 mg) were mixed with ice-cold PBS spiked with the internal standard mixture (LPA-d9, Cayman) in a glass tube (total final volume 1mL). 2 mL of ice-cold chloroform and 1 mL of methanol was added in each sample, following by vortexing for 1 min and then centrifugation at 4°C for 5 min at 4000 g. The lower transparent organic phase (chloroform phase-contains the neutral lipids) was collected in a glass tube. The remaining aqueous phase (upper phase) was left on ice for 10 min and acidified (pH 3–4) with Formic Acid 10% in water. Then 1.5 mL chloroform was added followed by thorough mixing for 1 min and centrifugation at 4°C for 5 min at 2000 g. The lower organic phase was collected and neutralized to pH 6–7. The neutralized organic phase from the acid extraction were evaporated to dryness. After evaporation we redissolve in water/methanol (1:9) with 0.1% formic acid and run in the mass spec. All MS quantitation lipid standards were purchased from Cayman unless otherwise mentioned. All LPA species analyzed in this study were quantified using the multiple reaction monitoring (MRM) scanning method on an Waters-QQQ mass spectrometer. All data were acquired and analyzed using the Waters data analysis software. The LC separation was achieved using a Gemini 5U C18 column (Phenomenex, 5 μm, 50 × 4.6 mm) coupled to a Gemini guard column (Phenomenex, 4 × 3 mm). The LC solvents were as follows: buffer A, 85% CAN, 5% MeOH +0.1% formic acid +10% 10 mM ammonium formate buffer pH5; buffer B, 95:5 (v/v) ACN/MeOH +0.1% formic acid. A typical LC-run was 35 min, with the following solvent run sequence post injection: 0.35 mL/min 5% B for 5 min, linear gradient of B from 0 to 95% over 25 min, and re-equilibration with 0.5 mL/min of 5% B for 5 min. […] All the endogenous lipid species were quantified by measuring the area under the curve in comparison to the respective internal standard, and then normalized to the total protein content of the […] tissue. The following table presents the MRM used for LPA quantification.

[1] = system: BLM-induced fibrotic mouse PCLSs; assay: Fibrotic mouse precision-cut lung slices (PCLS); type: cell-based; conditions: 30 μΜ, 72 h
Description: Fourteen days after administration, mice were euthanized and lungs were perfused with PBS. Lungs were subsequently inflated through the trachea with pre-warmed (40-42 °C) low melting-point agarose. Following agarose solidification, the left lateral lobe was excised and sectioned into 300μm-thick slices using a vibratome machine. Lung slices were placed in 12- or 24-well culture plates containing complete DMEM supplemented with 1% penicillin/streptomycin, and 0.1% amphotericin B, and maintained at 37 °C, 5% CO2 and ≥95% relative humidity. After an overnight equilibration period, slices were treated with either GLPG-1690 (30μM) or compound 5 (30μM) for 72 h. Culture medium was refreshed every 24 h throughout the treatment period. For downstream gene expression analysis, three slices were pooled per sample for RNA extraction. Control PCLS were generated from saline-treated mice. […] Fluorophore-conjugated secondary antibody (1:500) was applied for 1 h at room temperature, and nuclei were counterstained with DAPI. Brightfield and fluorescence imaging were performed using the Olympus VS200 slide scanner.

[2] = Fast-track PK of compound 5: plasma exposure after i.v., i.p., inhalation, per os; type: in vivo, mice; conditions: 30 mg/kg, 1 and 3 h post-dose, versus i.v.

Compound | Glucose levels (type 2 diabetes model) | Insulin resistance (AUC of oGTT) (type 2 diabetes model) | PPARγ target gene expression in adipose and liver tissue (type 2 diabetes model) | Col1a1 and Acta2 (aSMA) mRNA and protein (NHLFs) | PPARγ target genes and PPARγ expression (NHLFs) | LPA species in BALF (LPA levels) | Plasma LPA levels (LPA levels) | Total LPA content in BALFs (LPA levels) | Col1a1 mRNA expression [1] | Fn1 mRNA expression [1] | Lung architecture, fibrotic lesions [1] | Plasma concentrations after i.p. and per os administration [2]
O=C1NC(=O)C(Cc2ccc(OCCC3CCN(C(=O)OCc4cc(Cl)cc(Cl)c4)CC3)cc2)S1 (stereo not drawn) [EL244, 3,5-dichlorobenzyl 4-(2-(4-((2,4-dioxothiazolidin-5-yl)methyl)phenoxy)ethyl)piperidine-1-carboxylate] | lower glucose levels | decreased insulin resistance | stimulated the expression of several PPARγ target genes | suppressed | stimulating the expression of PPARγ target genes | All LPA species, except for 18:0, were found to be reduced in the BALF | no modulation of plasma LPA levels was detected | found reduced |  |  |  | 
O=C1NC(=O)C(Cc2ccc(OCCN3CCN(C(=O)OCc4cc(Cl)cc(Cl)c4)CC3)cc2)S1 (stereo not drawn) [Compound 5, 3,5-dichlorobenzyl4-(2-(4-((2,4-dioxothiazolidin-5-yl)methyl)phenoxy)ethyl)piperazine-1-carboxylate] |  |  |  |  |  |  |  |  | decreasing | decreasing | improved the lung architecture | comparable to the respective i.v. concentrations
